Source: patent US9675592B2, “Methods and compositions for bacteria infections” (priority 2013, dated 2017)
Read-outs that look alike come from different tables or passages of the source.

Key:
[1] = test system: vraSR promoter (Pvra-lux reporter in strain 923); assay type: cell-based, Staphylococcus aureus; conditions: for RL Ox avg: Top 40 library, with oxacillin, compound at maximum non-GI conc; for vraSR repressing synergist: overall class from syn and rep
Protocol: In the secondary screen each microtiter plate contained either cells in TSB alone (16 replicates), cells with oxacillin (2 μg/mL, 31 replicates), or cells with test compound and oxacillin (2 μg/mL, 49 wells). Each compound was assayed in four separate biological replicates. […]

[2] = test system: vraSR promoter (Pvra-lux reporter in strain 923); assay: Primary screen, relative luminescence (vraSR expression)
[3] = test system: test strain (923 pPvra-lux); assay: Growth inhibition by compound alone (maximum non-growth-inhibitory concentration); assay type: cell-based, Staphylococcus aureus; conditions: compound alone; maximum concentration where it did NOT inhibit growth
[4] = test system: test strain 923 pPvra-lux; assay: Secondary screen / synergy confirmation of Top 40, relative growth with oxacillin; assay type: cell-based, Staphylococcus aureus; conditions: Top 40 library, compound at maximum non-GI conc
Protocol: In the secondary screen each microtiter plate contained either cells in TSB alone (16 replicates), cells with oxacillin (2 μg/mL, 31 replicates), or cells with test compound and oxacillin (2 μg/mL, 49 wells). Each compound was assayed in four separate biological replicates.
Synergy Confirmation of “Top 40”. […]

[5] = test system: test strain 923 pPvra-lux (USA300 MRSA); assay: Primary screen, relative growth in presence of oxacillin; conditions: compound 10 μM with oxacillin 2 μg/mL, absorbance 24 h, <0.50 = dead cells = hit
[6] = primary screen, compound 10 μM with oxacillin 2 μg/mL, <0.50 = vraSR repressed = hit

## O=C(Nc1ccccc1-c1nc2ccccc2[nH]1)c1ccccc1Br [F0015-0758]
[1]
  RL Ox avg: 0.25
  vraSR repressing synergist: 3. no effect
[2]; [6]
  RL avg (relative luminescence): 0.33
[3]
  maximum non-GI conc: 400 µg/mL
[4]
  RG Ox avg: 0.92
[5]
  RG avg (relative growth): −0.06

## O=C(Nc1nnc(C2=COCCO2)o1)c1cccc(Br)c1 [F0608-0146]
[1]
  RL Ox avg: 1.11
  vraSR repressing synergist: 3. no effect
[2]; [6]
  RL avg (relative luminescence): −0.12
[3]
  maximum non-GI conc: 40 µg/mL
[4]
  RG Ox avg: 0.96
[5]
  RG avg (relative growth): −0.05

## O=C(Nc1ccc(Cl)c(Cl)c1)N(Cc1ccsc1)Cc1ccco1 [F5854-2599]
[1]
  RL Ox avg: 0.54
  vraSR repressing synergist: 3. no effect
[2]; [6]
  RL avg (relative luminescence): −0.06
[3]
  maximum non-GI conc: 40 µg/mL
[4]
  RG Ox avg: 1.01
[5]
  RG avg (relative growth): 0.01

## O=C(Nc1ccc(Cl)c(C(F)(F)F)c1)N1CCN(c2cc(-n3cccn3)ncn2)CC1 [F5562-0130]
[1]
  RL Ox avg: 0.57
  vraSR repressing synergist: 3. no effect
[2]; [6]
  RL avg (relative luminescence): −0.08
[3]
  maximum non-GI conc: 40 µg/mL
[4]
  RG Ox avg: 1.03
[5]
  RG avg (relative growth): 0.02

## CC(=O)Nc1ccc(Nc2cc(C(C)C)nc3c(-c4ccccc4)cnn23)cc1 [F3348-0533]
[1]
  RL Ox avg: 0.10
  vraSR repressing synergist: 1. confirmed
[2]; [6]
  RL avg (relative luminescence): 0.01
[3]
  maximum non-GI conc: 400 µg/mL
[4]
  RG Ox avg: 0.02
[5]
  RG avg (relative growth): 0.02

## Cc1ccc(Nc2nc(N3CCN(Cc4ccccc4)CC3)nc3nccnc23)cc1C [F2359-0308]
[1]
  RL Ox avg: 0.01
  vraSR repressing synergist: 1. confirmed
[2]; [6]
  RL avg (relative luminescence): 0.07
[3]
  maximum non-GI conc: 400 µg/mL
[4]
  RG Ox avg: 0.01
[5]
  RG avg (relative growth): 0.22

## O=C(Nc1ccc(OC(F)(F)F)cc1)N1CCN(c2cc(N3CCCC3)ncn2)CC1 [F5669-0378]
[1]
  RL Ox avg: 0.71
  vraSR repressing synergist: 3. no effect
[2]; [6]
  RL avg (relative luminescence): −0.06
[3]
  maximum non-GI conc: 40 µg/mL
[4]
  RG Ox avg: 1.00
[5]
  RG avg (relative growth): −0.02

## CC(=O)Nc1ccc(Nc2cc(C(C)(C)C)nc3c(-c4ccccc4)c(C)nn23)cc1 [F3348-0030]
[1]
  RL Ox avg: 0.05
  vraSR repressing synergist: 1. confirmed
[2]; [6]
  RL avg (relative luminescence): 0.12
[3]
  maximum non-GI conc: 400 µg/mL
[4]
  RG Ox avg: 0.01
[5]
  RG avg (relative growth): 0.05

## Cc1ccc(S(=O)(=O)Nc2ccccc2C(=O)Nc2nc3c(C)ccc(Cl)c3s2)cc1 [F1813-0711]
[1]
  RL Ox avg: 0.43
  vraSR repressing synergist: 2. possible
[2]
  RL avg (relative luminescence): −0.02
[3]
  maximum non-GI conc: 400 µg/mL
[4]
  RG Ox avg: 0.85
[5]
  RG avg (relative growth): −0.02

## CN1CCN(c2nc(Nc3ccc(SC(F)F)cc3)c3cnn(-c4ccccc4)c3n2)CC1 [F2090-0579]
[1]
  RL Ox avg: 0.11
  vraSR repressing synergist: 1. confirmed
[2]; [6]
  RL avg (relative luminescence): 0.04
[3]
  maximum non-GI conc: 400 µg/mL
[4]
  RG Ox avg: 0.30
[5]
  RG avg (relative growth): 0.00

## Cc1nnsc1C(=O)Nc1nc(-c2cc3ccccc3o2)cs1 [F2962-0176]
[1]
  RL Ox avg: 0.01
  vraSR repressing synergist: 1. confirmed
[2]; [6]
  RL avg (relative luminescence): −0.08
[3]
  maximum non-GI conc: 400 µg/mL
[4]
  RG Ox avg: 0.04
[5]
  RG avg (relative growth): 0.06

## O=C(Nc1ccc2c(c1)OCO2)Nc1nc(-c2ccccn2)cs1 [F5772-8284]
[1]
  RL Ox avg: 0.52
  vraSR repressing synergist: 2. possible
[2]; [6]
  RL avg (relative luminescence): −0.01
[3]
  maximum non-GI conc: 400 µg/mL
[4]
  RG Ox avg: 0.37
[5]
  RG avg (relative growth): 0.37

## O=C(Nc1cccc(C(F)(F)F)c1)N1CCN(c2ccc(Nc3cccnc3)nn2)CC1 [F5237-0056]
[1]
  RL Ox avg: 0.72
  vraSR repressing synergist: 3. no effect
[2]; [6]
  RL avg (relative luminescence): −0.05
[3]
  maximum non-GI conc: 40 µg/mL
[4]
  RG Ox avg: 1.10
[5]
  RG avg (relative growth): 0.02

## Cc1ccc(S(=O)(=O)Nc2ccccc2C(=O)Nc2nc3c(Cl)ccc(Cl)c3s2)cc1 [F1813-0710]
[1]
  RL Ox avg: 0.20
  vraSR repressing synergist: 2. possible
[2]; [6]
  RL avg (relative luminescence): 0.01
[3]
  maximum non-GI conc: 400 µg/mL
[4]
  RG Ox avg: 0.69
[5]
  RG avg (relative growth): −0.03

## O=C(Nc1nc(-c2ccccn2)cs1)c1ccc(Br)s1 [F0447-0273]
[1]
  RL Ox avg: 0.08
  vraSR repressing synergist: 1. confirmed
[2]; [6]
  RL avg (relative luminescence): −0.09
[3]
  maximum non-GI conc: 40 µg/mL
[4]
  RG Ox avg: 0.39
[5]
  RG avg (relative growth): −0.08

## CC1CC1c1ccc(CCC(=O)Nc2ccc(Cl)c(Cl)c2)o1 (stereo not drawn) [F1118-0378]
[1]
  RL Ox avg: 0.65
  vraSR repressing synergist: 3. no effect
[2]; [6]
  RL avg (relative luminescence): 0.42
[3]
  maximum non-GI conc: 40 µg/mL
[4]
  RG Ox avg: 1.00
[5]
  RG avg (relative growth): 0.01

## Fc1ccc(-c2csc3ncnc(Sc4nnnn4-c4ccccc4)c23)cc1 [F1142-4245]
[1]
  RL Ox avg: 0.04
  vraSR repressing synergist: 1. confirmed
[2]; [6]
  RL avg (relative luminescence): 0.36
[3]
  maximum non-GI conc: 400 µg/mL
[4]
  RG Ox avg: 0.25
[5]
  RG avg (relative growth): 0.03

## Cc1ccc(C)c2sc(NC(=O)c3cccs3)nc12 [F0600-1305]
[1]
  RL Ox avg: 0.15
  vraSR repressing synergist: 3. no effect
[2]; [6]
  RL avg (relative luminescence): 0.22
[3]
  maximum non-GI conc: 400 µg/mL
[4]
  RG Ox avg: 0.94
[5]
  RG avg (relative growth): 0.36

## O=S(=O)(Nc1cccc(-c2nc3ccccc3s2)c1)c1ccc(Cl)s1 [F2399-0063]
[1]
  RL Ox avg: 0.04
  vraSR repressing synergist: 1. confirmed
[2]; [6]
  RL avg (relative luminescence): 0.12
[3]
  maximum non-GI conc: 400 µg/mL
[4]
  RG Ox avg: −0.01
[5]
  RG avg (relative growth): 0.28

## O=C(Nc1nnc(-c2ccccc2Cl)o1)c1ccc2ccccc2c1 [F1374-0082]
[1]
  RL Ox avg: 0.08
  vraSR repressing synergist: 2. possible
[2]; [6]
  RL avg (relative luminescence): 0.35
[3]
  maximum non-GI conc: 40 µg/mL
[4]
  RG Ox avg: 0.67
[5]
  RG avg (relative growth): 0.08

## O=C(Nc1nnc(-c2ccc(OC(F)(F)F)cc2)o1)C1(c2cccs2)CCCC1 [F2517-0863]
[1]
  RL Ox avg: 1.18
  vraSR repressing synergist: 3. no effect
[2]; [6]
  RL avg (relative luminescence): −0.06
[3]
  maximum non-GI conc: 4 µg/mL
[4]
  RG Ox avg: 0.92
[5]
  RG avg (relative growth): 0.02

## CSc1cccc2sc(NC(=O)c3ccccc3NS(=O)(=O)c3ccc(C)cc3)nc12 [F2730-0247]
[1]
  RL Ox avg: 0.15
  vraSR repressing synergist: 1. confirmed
[2]; [6]
  RL avg (relative luminescence): 0.16
[3]
  maximum non-GI conc: 400 µg/mL
[4]
  RG Ox avg: 0.23
[5]
  RG avg (relative growth): 0.31

## Cn1cccc1C(CNC(=O)Nc1ccc(Cl)c(Cl)c1)N1CCOCC1 (stereo not drawn) [F5833-1551]
[1]
  RL Ox avg: 0.56
  vraSR repressing synergist: 3. no effect
[2]; [6]
  RL avg (relative luminescence): −0.03
[3]
  maximum non-GI conc: 40 µg/mL
[4]
  RG Ox avg: 0.99
[5]
  RG avg (relative growth): 0.01
